Measured values as given in patent US20080299566A1, “Methylation of Gene Promoters as a Predictor of Effectiveness of Therapy” (priority 2006, published 2008).

Columns and labels:
[1] = test system: EAC cell line OE33; experiment: 5AzaC treatment of EAC cell line OE33; qMSP and real-time RT-PCR for Reprimo; format: cell-based; details: 1 μl of 5 mM 5AzaC per ml of cells every 24 hours for 6 days, harvested day 0, 2, 4, 6
Description: (§1) DNA methylation of Reprimo was determined by qMSP using the ABI 7700 Taqman system (Eads C. A. et al., (2001)). MSP distinguishes methylated alleles of a given gene based on DNA sequence alterations after bisulfite treatment of DNA. Bisulfite treatment converts unmethylated but not methylated cytosines to uracils. Subsequent PCR using primers and probe specific to the corresponding methylated DNA sequence is then performed. (Eads C. A. et al., (2001)).
(§2) The normalized MSP value (NMV) was calculated by dividing the ratio of the qMSP value for Reprimo to β-actin for each sample by the ratio of the qMSP value for Reprimo to, β-actin for Universal Methylated DNA (See Sato F. et al., Cancer Res., 62:6820-6822 (2002) and Shibata, D. M., et al., Cancer Res., 62:5637-5640 (2002)). Qualitative MSP status was determined by analyzing the normalized MSP value. A normalized MSP value of 0.05 was assigned as the cutoff point for classifying methylation status as qualitatively positive (≧0.05) or negative (<0.05). This cutoff point had been previously determined by ROC curve analysis (See Shibata, D. M., et al., (2002)).
(§3) This treatment protocol has been published previously (Shibata, D. M., et al., Cancer Res., 62:5637-5640 (2002)). […]

[2] = test system: ESCC cell line KYSE 110; experiment: 5AzaC treatment of ESCC cell line KYSE 110; qMSP and real-time RT-PCR for Reprimo; format: cell-based; details: 1 μl of 5 mM 5AzaC per ml of cells every 24 hours for 6 days, harvested day 0, 2, 4, 6
Description: as §1, §2, §3

In the case of `Nc1ncn([C@H]2C[C@H](O)[C@@H](CO)O2)c(=O)n1` [5AzaC, 5-Aza-2′-Deoxycytidine], the “Reprimo mRNA expression” value [1] is reported as “increased Reprimo mRNA expression”, the “Reprimo methylation (qMSP)” value [1] is reported as “reduction in Reprimo methylation” and the “Reprimo mRNA expression” value [2] is reported as “increased Reprimo mRNA expression”. For the same compound, the “Reprimo methylation (qMSP)” value [2] was “reduction in Reprimo methylation”.
